# From patent US20100197588A1, “USE OF A PEPTIDE AS A THERAPEUTIC AGENT” (priority 2007, published 2010)
# Where no end group is shown, it is not given here.
# Key:
# HIV-1IIIB = assay: HIV-1 antiviral assay in CEM-SS cells (MTS readout)
# HCMV strain AD169 = assay: HCMV plaque formation assay in MRC-5 cells
# A549 cells = assay: Apoptosis prevention assay (C2 ceramide, Annexin-5); conditions: 10 micrograms per ml, 30 min pretreatment, then C2 ceramide, combination 0.95 mole peptide 1 and 1.05 mole peptide 2
# Method: Human A549 cells (carcinomic human alveolar basal epithelial cells) were utilized in the experiments employing the Annexin-5 apoptosis assay. […] A549 cells were pretreated for 30 min with test peptides—10 micrograms per ml—followed by the exposure to C2 ceramide.
# Interleukin-5 (IL-5) = assay: Th1/Th2 cytokine profiling assay, IL-5; conditions: 10 micrograms per ml; Ovalbumin-restimulated Balb/c spleen cells, 72 hours
# From the text: (§1) The Balb/c mice (originated in 1923, it is a popular strain and is used in many different research disciplines. Also classified as an inbred from the production of 20 or more successive brother-sister matings, the Balb/c mouse is albino and small in size) were immunized on Days 1, 15, and 29 with Ovalbumin (Ovalbumin is the main protein found in egg white, commonly used to stimulate an immunological reaction in test animals) in PBS (5 micrograms/injection). On day 50, spleens of the mice were harvested (3 weeks after last boost with Ovalbumin). […] Thereafter, additional Ovalbumin was added to the cells at 10 micrograms/ml for in vitro restimulation of the cells. 72 hours later, cell supernatants were harvested and assayed using the Becton Dickinson Mouse Th1/Th2 Cytokine CBA Kit. This kit can be used to measure Interleukin-2 (IL-2), Interleukin-4 (IL-4), Interleukin-5 (IL-5), Interferon-γ (IFN-γ), and Tumor Necrosis Factor-α (TNF-α) protein levels in a single sample.
# Interleukin-2 (IL-2) = assay: Th1/Th2 cytokine profiling assay, IL-2; conditions: 10 micrograms per ml; Ovalbumin-restimulated Balb/c spleen cells, 72 hours
# From the text: as §1
# [1] = system: Tumor Necrosis Factor-α (TNF-α); assay: Th1/Th2 cytokine profiling assay, TNF-α; conditions: 10 micrograms per ml; Ovalbumin-restimulated Balb/c spleen cells, 72 hours
# From the text: (§2) The Balb/c mice (originated in 1923, it is a popular strain and is used in many different research disciplines. Also classified as an inbred from the production of 20 or more successive brother-sister matings, the Balb/c mouse is albino and small in size) were immunized on Days 1, 15, and 29 with Ovalbumin (Ovalbumin is the main protein found in egg white, commonly used to stimulate an immunological reaction in test animals) in PBS (5 micrograms/injection). On day 50, spleens of the mice were harvested (3 weeks after last boost with Ovalbumin). […] Thereafter, additional Ovalbumin was added to the cells at 10 micrograms/ml for in vitro restimulation of the cells. 72 hours later, cell supernatants were harvested and assayed using the Becton Dickinson Mouse Th1/Th2 Cytokine CBA Kit. This kit can be used to measure Interleukin-2 (IL-2), Interleukin-4 (IL-4), Interleukin-5 (IL-5), Interferon-γ (IFN-γ), and Tumor Necrosis Factor-α (TNF-α) protein levels in a single sample. The kit performance has been optimized for analysis of physiologically relevant concentrations (μg/ml levels) of specific cytokine proteins in tissue culture supernatants and serum samples.
# [2] = system: Primary Human endothelial cells (HUVEC); assay: Endothelial cell migration assay; conditions: 10 micrograms per ml, 22 hours
# Method: Primary Human endothelial cells (HUVEC) were seeded in insert chambers with 3 micrometer pore size of multi-transwell plate for 6 hours at 37° C. in Endothelial Cell Basal Medium (EBM) supplemented with 0.1% bovine serum albumin. Thereafter, designated concentration of testing peptides—10 micrograms per ml—was added in duplicate wells. The endothelia were allowed to migrate for 22 hours at 37° C., then, migrated cells were fixed and stained with Hoechst 33342 dye. Images of 3 fields per insert were taken and the number of migrated cells per field were quantified using the ImageProPlus software. Data were analyzed for the average number of the migrated cells and standard deviation of six data points for each treatment condition. […] Statistic p values were computed using the Student's t-test.
# HUVEC = assay: Endothelial tube formation assay; conditions: 10 micrograms per ml, 20 hours, combination peptide 1:peptide 2 0.95 mole:1.05 mole
# Method: The endothelial tube formation assay is based on the ability of endothelial cells to form three-dimensional capillary-like tubular structures when cultured on a gel of basement membrane extract. […] Pre-labeled HUVEC with Calcein AM were seeded in a 96-well culture plate coated with extracellular metrix (Chemicon international Cat. ECM625) and treated with test peptides—10 micrograms per ml—in full growth medium. Positive control was vehicle only. The endothelial cells were allowed to form tubes for 20 hours and were then examined under an inverted fluorescent microscope. Duplicate wells for each treatment were photographed and quantitatively analyzed for an average tubule length using image analysis software ImageProPlus. Raw data were expressed as average tubule lengths in pixels ±standard deviation. Statistic p values were computed using the Student's t-test.
# Interferon-γ (IFN-γ) = assay: Th1/Th2 cytokine profiling assay, IFN-γ; conditions: 10 micrograms per ml; Ovalbumin-restimulated Balb/c spleen cells, 72 hours
# From the text: as §2
# Interleukin-4 (IL-4) = assay: Th1/Th2 cytokine profiling assay, IL-4; conditions: 10 micrograms per ml; Ovalbumin-restimulated Balb/c spleen cells, 72 hours
# From the text: as §1
# [3] = system: hepatitis B virus (HBV) ayw strain; assay: HBV experimental assay system, secreted HBV DNA by TaqMan PCR in HepG2-2.2.15 cells; assay type: cell-based; conditions: 10 micrograms per ml, six days
# From the text: HepG2-2.2.15 is a stable cell line containing the hepatitis B virus (HBV) ayw strain genome (ATCC Cat. No. CRL-11997). Antiviral compounds blocking any late step of viral replication such as transcription, translation, pregenome encapsidation, reverse transcription, particle assembly and release can be identified and characterized using this cell line. In this assay, an active compound will reduce the production of secreted HBV from cells, measured by utilizing real time quantitative PCR (TaqMan) assay to directly and accurately measure HBV DNA copies.
# HepG2-2.2.15 cells were plated in 96-well microtiter plates. After 16-24 hours the confluent monolayer of HepG2-2.2.15 cells was washed and the medium was replaced with complete medium containing test peptides—10 micrograms per ml—in duplicate. […] Six days following the initial administration of the peptides, the cell culture supernatants was collected, treated with pronase and DNAse and then used in a real-time quantitative TaqMan PCR assay. The PCR-amplified HBV DNA was detected in real-time by monitoring increases in fluorescence signals that result from the exonucleolytic degradation of a quenched fluorescence probe molecule that hybridizes to the amplified HBV DNA. […] Antiviral activity was calculated from the reduction in HBV DNA levels (% virus control). […]
# [4] = system: Human Peripheral Blood Mononuclear Cells (PBMC), B cell proliferation; assay: B cell proliferation assay (SAC plus Interleukin-2 stimulated PBMC, 3H-thymidine); conditions: 10 micrograms per ml, 3 days
# Method: Human Peripheral Blood Mononuclear Cells (PBMC) were obtained from normal human donors. The B cell proliferation was induced by stimulation of the cells with the B cell mitogen Staphylococcus aureus Cowans I (SAC) plus Interleukin-2, either in the absence (positive proliferation control), or in the presence of test peptides—10 micrograms per ml—to examine their effects on the B cell response. 10^5/well PBMC were plated in 96-well microtiter plates and assayed in duplicate with the peptides. […] At the end of incubation time, the plates were harvested and the cells counted by liquid scintillation for the incorporation of ^3H-thymidine as a measure of B cell proliferation.
Molecule,antiviral activity of positive control compounds (HIV-1) (HIV-1IIIB),antiviral activity of positive control compound (HCMV) (HCMV strain AD169),induction of the ceramide-induced apoptosis on human lung cells (A549 cells),IL-5 spleen cells; TH2 response (% of control) (Interleukin-5 (IL-5)),IL-2 spleen cells (% of control) (Interleukin-2 (IL-2)),TNF-a spleen cells; TH1 response (% of control) [1],induction of the migration of endothelial cells [2],induction of the tube formation of human endothelial cells (HUVEC),IFNγ spleen cells; TH1 response (% of control) (Interferon-γ (IFN-γ)),IL-4 spleen cells; TH2 response (% of control) (Interleukin-4 (IL-4)),inhibition of HBV replication as compared to the virus control infection [3],induction of the proliferation of specifically stimulated human B-cells [4],inhibition of the migration of endothelial cells ([2]; combination peptide 1:peptide 2 0.95 mole:1.05 mole)
Cc1cn([C@H]2C[C@H](N=[N+]=[N-])[C@@H](CO)O2)c(=O)[nH]c1=O [AZT],expected levels of antiviral activity,–,–,–,–,–,–,–,–,–,–,–,–
Nc1nc(O)c2ncn(COC(CO)CO)c2n1 [Ganciclovir],–,expected levels of antiviral activity,–,–,–,–,–,–,–,–,–,–,–
CC(C)(C)NC(=O)[C@@H]1CN(Cc2cccnc2)CCN1C[C@@H](O)C[C@@H](Cc1ccccc1)C(=O)N[C@H]1c2ccccc2C[C@H]1O [indinavir],expected levels of antiviral activity,–,–,–,–,–,–,–,–,–,–,–,–
Ac-Met-Trp-Asp-Phe-Asp-Asp-Leu-Asn-Phe-Thr-Gly-Met-Pro-Pro-Ala-Asp-Glu-Asp-Tyr-Ser-Pro-NH2 (Ac-MWDFDDLNFTGMPPADEDYSP-NH2) [peptide 2],–,–,19.65%,59.3 % of control,63.0 % of control,90.3 % of control,9%,32%,59.2 % of control,136.3 % of control,no effect,does not show any induction,–
His-Ser-Asp-Gly-Ile-Phe-Thr-Asp-Ser-Tyr-Ser-Arg-Tyr-Arg-Lys-Gln-Met-Ala-Val-Lys-Lys-Tyr-Leu-Ala-Ala-Val-Leu-Gly-Lys-Arg-Tyr-Lys-Gln-Arg-Val-Lys-Asn-Lys-NH2 (HSDGIFTDSYSRYRKQMAVKKYLAAVLGKRYKQRVKNK-NH2) [peptide 1],–,–,did not induce,63.0 % of control,0.0 % of control,94.0 % of control,–,36%,60.8 % of control,120.1 % of control,48.0%,23.3%,6%
